Data published in PMC11435058, “Synthesis of New Thiazole-Privileged Chalcones as Tubulin Polymerization Inhibitors with Potential Anticancer Activities” (Pharmaceuticals, 2024).
Where two headings read alike, the source gives them in different places.

What was measured:
SW-620 = assay: NCI-60 anticancer screen (SRB; single dose and five doses); settings: Homo sapiens
MDA-MB-468 = assay: as above; type: cell-based, human
Method in brief: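 Readout was sulforhodamine B staining, read spectrophotometrically as percent growth against untreated controls. This followed a 48 h exposure to one 10μM dose across roughly 60 human tumor lines of the NCI screen.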

SK-MEL-2 = assay: as above; settings: Homo sapiens
SNB-19 = assay: cells; settings: Homo sapiens
RXF 393 = assay: NCI-60 anticancer screen (SRB; single dose and five doses); settings: Homo sapiens
MALME-3M = assay: as above; settings: Homo sapiens
HL-60(TB) = assay: as above; settings: Homo sapiens
IGROV1 = assay: as above; settings: Homo sapiens
UACC-62 = assay: as above; settings: Homo sapiens
SK-OV-3 = assay: as above; settings: Homo sapiens
U251 = assay: as above; settings: Homo sapiens
OVCAR-8 = assay: as above; settings: Homo sapiens
SF-268 = assay: as above; settings: Homo sapiens
CAKI-1 = assay: as above; settings: Homo sapiens
SK-MEL-5 = assay: as above; settings: Homo sapiens
MOLT-4 = assay: as above; settings: Homo sapiens
UO-31 = assay: as above; settings: Homo sapiens
HS 578T = assay: as above; settings: Homo sapiens
UACC-257 = assay: as above; settings: Homo sapiens
[1] = system: 60 human tumor cell lines panel; assay: NCI-60 anticancer screen, whole panel (means and ranges over the cell lines); type: cell-based; settings: for activity at 10 µM: Homo sapiens, 48 h, dose of 10 μM
MDA-MB-231/ATCC = assay: NCI-60 anticancer screen (SRB; single dose and five doses); settings: Homo sapiens
MCF7 = assay: as above; settings: Homo sapiens
M14 = assay: as above; settings: Homo sapiens
NCI-H522 = assay: as above; settings: Homo sapiens
SF-539 = assay: as above; settings: Homo sapiens
[2] = 48 h, read-out: Growth Percentage
[3] = five doses, mean graph midpoint over all cell lines

Question: How did the GI50 (SW-620; SW-620) turn out when `Cc1[nH]c(=S)sc1C(=O)/C=C/c1ccc([N+](=O)[O-])cc1` [2i, (E)-1-(4-Methyl-2-Thioxo-2,3-Dihydrothiazol-5-yl)-3-(4-Nitrophenyl)Prop-2-En-1-One] was run?
Answer: 3.59 µM

Question: What about the activity at 10 µM (SW-620; SW-620, 48 h, read-out: Growth Percentage) of the same compound?
Answer: -44.8%

Question: What about the CC50 (SW-620; SW-620, read-out: LC50) of the same compound?
Answer: 44.2 µM

Question: What about the IC (TGI) (SW-620; SW-620, read-out: TGI) of the same compound?
Answer: 13.9 µM

Question: And the activity at 10 µM (MDA-MB-468; Homo sapiens, 48 h, MDA-MB-468, dose of 10 μM, read-out: Growth Percentage)?
Answer: -18.9%

Question: And the GI50 (MDA-MB-468; Homo sapiens, MDA-MB-468, Breast Cancer, five dose)?
Answer: 2200 nM

Question: And the CC50 (MDA-MB-468; Homo sapiens, MDA-MB-468, Breast Cancer, five dose, read-out: LC50 (the source's name))?
Answer: 31.4 µM

Question: And the TGI (MDA-MB-468; MDA-MB-468, Breast Cancer, five dose)?
Answer: 8 µM

Question: And the GI50 (SK-MEL-2; SK-MEL-2)?
Answer: 13.6 µM

Question: What about the activity at 10 µM (SK-MEL-2; SK-MEL-2, 48 h, read-out: Growth Percentage) of the same compound?
Answer: 49.5%

Question: And the CC50 (SK-MEL-2; SK-MEL-2, read-out: LC50)?
Answer: 62 µM

Question: What about the IC (TGI) (SK-MEL-2; SK-MEL-2, read-out: TGI) of the same compound?
Answer: 29 µM

Question: And the GI50 (SNB-19; SNB-19)?
Answer: 5.42 µM

Question: What about the activity at 10 µM (SNB-19; SNB-19, 48 h, read-out: Growth Percentage) of the same compound?
Answer: 41.2%

Question: And the CC50 (SNB-19; SNB-19, read-out: LC50)?
Answer: 43.2 µM

Question: And the IC (TGI) (SNB-19; SNB-19, read-out: TGI)?
Answer: 18.3 µM

Question: And the GI50 (RXF 393; RXF 393)?
Answer: 4.88 µM

Question: And the activity at 10 µM (RXF 393; RXF 393, 48 h, read-out: Growth Percentage)?
Answer: -4.35%

Question: And the CC50 (RXF 393; RXF 393, read-out: LC50)?
Answer: 44.8 µM

Question: And the IC (TGI) (RXF 393; RXF 393, read-out: TGI)?
Answer: 18.6 µM

Question: What about the GI50 (MALME-3M) of the same compound?
Answer: 13.7 µM

Question: What about the activity at 10 µM (MALME-3M; [2]) of the same compound?
Answer: 75.2%

Question: And the CC50 (MALME-3M; read-out: LC50)?
Answer: 70.8 µM

Question: What about the IC (TGI) (MALME-3M; read-out: TGI) of the same compound?
Answer: 31.1 µM

Question: What about the GI50 (HL-60(TB); HL-60) of the same compound?
Answer: 3.05 µM

Question: And the activity at 10 µM (HL-60(TB); HL-60, 48 h, read-out: Growth Percentage)?
Answer: -5.39%

Question: And the CC50 (HL-60(TB); HL-60, read-out: LC50)?
Answer: > 100 µM

Question: What about the IC (TGI) (HL-60(TB); HL-60, read-out: TGI) of the same compound?
Answer: 16.9 µM

Question: And the GI50 (IGROV1; IGROV-1)?
Answer: 4.43 µM

Question: What about the activity at 10 µM (IGROV1; IGROV-1, 48 h, read-out: Growth Percentage) of the same compound?
Answer: 16.1%

Question: And the CC50 (IGROV1; IGROV-1, read-out: LC50)?
Answer: 50.8 µM

Question: And the IC (TGI) (IGROV1; IGROV-1, read-out: TGI)?
Answer: 14.9 µM

Question: And the GI50 (UACC-62; UACC-62)?
Answer: 10.5 µM

Question: And the activity at 10 µM (UACC-62; UACC-62, 48 h, read-out: Growth Percentage)?
Answer: 47.5%

Question: And the IC (TGI) (UACC-62; UACC-62, read-out: TGI)?
Answer: 22.4 µM

Question: What about the GI50 (SK-OV-3; SK-OV-3) of the same compound?
Answer: 18.6 µM

Question: What about the activity at 10 µM (SK-OV-3; SK-OV-3, 48 h, read-out: Growth Percentage) of the same compound?
Answer: 108%

Question: And the CC50 (SK-OV-3; SK-OV-3, read-out: LC50)?
Answer: 76.9 µM

Question: What about the IC (TGI) (SK-OV-3; SK-OV-3, read-out: TGI) of the same compound?
Answer: 37.8 µM

Question: What about the GI50 (U251; U-251) of the same compound?
Answer: 4.1 µM

Question: And the activity at 10 µM (U251; U-251, 48 h, read-out: Growth Percentage)?
Answer: 13.7%

Question: What about the CC50 (U251; U-251, read-out: LC50) of the same compound?
Answer: 53 µM

Question: What about the IC (TGI) (U251; U-251, read-out: TGI) of the same compound?
Answer: 17 µM

Question: What about the GI50 (OVCAR-8; OVCAR-8) of the same compound?
Answer: 7.73 µM

Question: And the activity at 10 µM (OVCAR-8; OVCAR-8, 48 h, read-out: Growth Percentage)?
Answer: 7.06%

Question: And the CC50 (OVCAR-8; OVCAR-8, read-out: LC50)?
Answer: 65.2 µM

Question: And the IC (TGI) (OVCAR-8; OVCAR-8, read-out: TGI)?
Answer: 23.9 µM

Question: And the GI50 (SF-268; SF-268)?
Answer: 15.6 µM

Question: What about the activity at 10 µM (SF-268; SF-268, 48 h, read-out: Growth Percentage) of the same compound?
Answer: 47.4%

Question: What about the CC50 (SF-268; SF-268, read-out: LC50) of the same compound?
Answer: 67.3 µM

Question: And the IC (TGI) (SF-268; SF-268, read-out: TGI)?
Answer: 32.4 µM

Question: And the GI50 (CAKI-1; CAKI-1)?
Answer: 13.9 µM

Question: What about the activity at 10 µM (CAKI-1; CAKI-1, 48 h, read-out: Growth Percentage) of the same compound?
Answer: 31.1%

Question: And the CC50 (CAKI-1; CAKI-1, read-out: LC50)?
Answer: 52.7 µM

Question: And the IC (TGI) (CAKI-1; CAKI-1, read-out: TGI)?
Answer: 27.1 µM

Question: And the GI50 (SK-MEL-5; SK-MEL-5)?
Answer: 12 µM

Question: And the activity at 10 µM (SK-MEL-5; SK-MEL-5, 48 h, read-out: Growth Percentage)?
Answer: 53.8%

Question: What about the CC50 (SK-MEL-5; SK-MEL-5, read-out: LC50) of the same compound?
Answer: 49.7 µM

Question: What about the IC (TGI) (SK-MEL-5; SK-MEL-5, read-out: TGI) of the same compound?
Answer: 24.4 µM

Question: And the GI50 (MOLT-4; MOLT-4)?
Answer: 3.79 µM

Question: What about the activity at 10 µM (MOLT-4; MOLT-4, 48 h, read-out: Growth Percentage) of the same compound?
Answer: 14.2%

Question: And the CC50 (MOLT-4; MOLT-4, read-out: LC50)?
Answer: > 100 µM

Question: What about the IC (TGI) (MOLT-4; MOLT-4, read-out: TGI) of the same compound?
Answer: > 100 µM

Question: What about the GI50 (UO-31; UO-31) of the same compound?
Answer: 4.86 µM

Question: And the activity at 10 µM (UO-31; UO-31, 48 h, read-out: Growth Percentage)?
Answer: -41.3%

Question: And the IC (TGI) (UO-31; UO-31, read-out: TGI)?
Answer: 18.8 µM

Question: What about the GI50 (HS 578T) of the same compound?
Answer: 13 µM

Question: And the activity at 10 µM (HS 578T; [2])?
Answer: 68.1%

Question: And the CC50 (HS 578T; read-out: LC50)?
Answer: 80.9 µM

Question: What about the IC (TGI) (HS 578T; read-out: TGI) of the same compound?
Answer: 32.4 µM

Question: What about the GI50 (UACC-257; UACC-257) of the same compound?
Answer: 15.1 µM

Question: And the activity at 10 µM (UACC-257; UACC-257, 48 h, read-out: Growth Percentage)?
Answer: 63.3%

Question: And the CC50 (UACC-257; UACC-257, read-out: LC50)?
Answer: 61.4 µM

Question: And the IC (TGI) (UACC-257; UACC-257, read-out: TGI)?
Answer: 30.4 µM

Question: And the activity at 10 µM ([1]; mean over the tested cell lines, read-out: Mean growth percentage)?
Answer: 25.2%

Question: What about the activity at 10 µM ([1]; range over the cell lines, read-out: growth percentages against most of the tested cells (lowest to highest)) of the same compound?
Answer: -86.2 to 108%

Question: What about the “Log10GI50 _MID” value [1, 3] of the same compound?
Answer: -5.13 Molar

Question: And the “Log10LC50 _MID” value [1, 3]?
Answer: -4.25 Molar

Question: What about the “Log10TGI _MID” value [1, 3] of the same compound?
Answer: -4.62 Molar

Question: And the GI50 (MDA-MB-231/ATCC; MDA-MB-231)?
Answer: 12 µM

Question: And the activity at 10 µM (MDA-MB-231/ATCC; MDA-MB-231, 48 h, read-out: Growth Percentage)?
Answer: 10.8%

Question: And the CC50 (MDA-MB-231/ATCC; MDA-MB-231, read-out: LC50)?
Answer: 51.5 µM

Question: What about the IC (TGI) (MDA-MB-231/ATCC; MDA-MB-231, read-out: TGI) of the same compound?
Answer: 24.8 µM

Question: And the GI50 (MCF7; MCF7)?
Answer: 2670 nM

Question: And the activity at 10 µM (MCF7; MCF7, 48 h, read-out: Growth Percentage)?
Answer: 5.51%

Question: And the CC50 (MCF7; MCF7, read-out: LC50)?
Answer: 51.3 µM

Question: And the IC (TGI) (MCF7; MCF7, read-out: TGI)?
Answer: 11.7 µM

Question: And the GI50 (M14; M14)?
Answer: 12.2 µM

Question: What about the activity at 10 µM (M14; M14, 48 h, read-out: Growth Percentage) of the same compound?
Answer: 69.5%

Question: What about the IC (TGI) (M14; M14, read-out: TGI) of the same compound?
Answer: 28.4 µM

Question: And the GI50 (NCI-H522; NCI-H522)?
Answer: 9.37 µM

Question: And the activity at 10 µM (NCI-H522; NCI-H522, 48 h, read-out: Growth Percentage)?
Answer: 33%

Question: And the CC50 (NCI-H522; NCI-H522, read-out: LC50)?
Answer: 51.5 µM

Question: What about the IC (TGI) (NCI-H522; NCI-H522, read-out: TGI) of the same compound?
Answer: 22.5 µM

Question: What about the GI50 (SF-539; SF-539) of the same compound?
Answer: 2310 nM

Question: What about the activity at 10 µM (SF-539; SF-539, 48 h, read-out: Growth Percentage) of the same compound?
Answer: -25.2%

Question: And the IC (TGI) (SF-539; SF-539, read-out: TGI)?
Answer: 7.02 µM
